# Data published in patent US20200078471A1, “RENAL CLEARABLE DRUG DELIVERING NANOPARTICLES AND METHODS OF USE THEREFOR” (priority 2018, published 2020).
# Entries after “also recorded” stand apart in the source; their conditions may differ.
# Assays:
# [1] = system: 4T1 lung metastasis; experiment: Metastatic lung cancer model, nodule count and size; type: in vivo, female Balb/c mice; details: 5 mg/kg DOX equivalent ×5, day 23
# [2] = system: MCF-7 human breast cancer xenograft; experiment: Tumor targeting efficiency; type: in vivo, nude mice; details: 12 hr p.i., DOX 5 mg/kg i.v.
# Description: Tumor targeting, penetration and antitumor efficacy studies. […] The tumors were collected and homogenized and DOX concentrations were measured using the same approaches described in the biodistribution studies. The ex vivo tumor fluorescence imaging was acquired using a Carestream Molecular imaging system In-Vivo FX PRO with an excitation filter of 470±10 nm and an emission filter of 600±20 nm. […] The mice were sacrificed 12 hr and 3 days p.i. respectively. Tumor tissues were fixed, embedded in paraffin and sliced before haematoxylin and eosin (H&E), and silver staining. To enable visualization of AuNPs in the tumor issues, dewaxed tumor slides were incubated with silver nitrate (0.1 M) and hydroquinone (2 mM) for 15 min at room temperature, followed by washing with pure water and haemotoxylin and eosin staining (Du et al., 2017). […] The length (L) and width (W) of the tumors were measured with a digital calliper and the volume (V) was calculated by the equation V=½ LW^2. The body weights were also monitored during the treatment. […] For survival study, the tumor bearing mice were treated same with therapeutic study, and tumor sizes were monitored. […] To establish the metastatic lung cancer model, female Balb/c mice were implanted with 4T1 mammary cancer cells subcutaneously and the cancer cells would be readily developed as lung metastatic nodules after a week.
# [3] = Pharmacokinetic study, DOX in blood
# Description: Clearance, physiological stability, and elimination. […] Since DOX is highly fluorescent, the fluorescence signals were collected at 610 nm with excitation at 470 nm. […] Extraction was performed at −20° C. for overnight and supernatant was obtained after centrifugation at 15,000 g for 10 min. The DOX concentrations were quantified based on fluorescence analysis. […] For pharmacokinetic study, the DOX concentrations in blood were analysed using HPLC with the same approach described above.
# [4] = Acute toxicity, successive treatment (body weight, blood chemistry, H&E)
# Description: (§1) Toxicity studies. […] For blood chemistry study, the blood was collected through cardiac puncture 15 days p.i. and kept on ice for 30 min for coagulation. […] The organs and tissues were also collected, fixed in formalin (10%) and embedded in paraffin before H&E staining and pathological evaluation. […] The mice were sacrificed on 10 days p.i. and the blood were extracted via cardiac puncture.
# [5] = Maximal tolerated dose, single dose; details: single i.v. dose, 10 days
# Description: as §1
# [6] = DOX and AuNP biodistribution in organs and tissues; type: in vivo, CD-1 mice
# Text: (§2) Clearance, physiological stability, and elimination. […] The DOX concentrations were quantified based on fluorescence analysis.
# [7] = Renal clearance (urine DOX by HPLC, gold by ICP-MS); type: in vivo, female CD-1 mice; details: 24 hr p.i., intravenous
# Text: as §2
# [8] = equivalent DOX 5 mg/kg ×5, within 10 days
compound,measurement,setting,value
"COc1cccc2c1C(=O)c1c(O)c3c(c(O)c1C2=O)C[C@@](O)(C(=O)CO)C[C@@H]3O[C@H]1C[C@H](N)[C@H](O)[C@H](C)O1 [free DOX, doxorubicin]",count of metastatic tumor nodules in the lungs (per mouse),[1],62.6±30.5
same,size of metastatic lung tumor nodules,[1],1.64±0.77 mm
same,tumor targeting of DOX,[2],0.79±0.22 % ID/g
same,24-h area under curve (AUC),[3]; DOX in blood,2.2 % ID·h/g
same,distribution half-life t1/2a,"[3]; plasma, CD-1 mice",4.8 min
same,hepatocyte anisocaryosis and anisocytosis (H&E liver),[4]; 15 days p.i.,increase in hepatocyte anisocaryosis and anisocytosis; also recorded: evident
same,hepatocyte nuclei size distribution width,[4]; 15 days p.i.,significant higher distribution width
same,"pathological signs in heart, kidney, spleen and muscle",[4]; 15 days p.i.,no observable pathological signs
same,"blood chemistry, liver function (ALT, AST, ALKP, albumin)","[4]; 15 days p.i., 5 mg/kg ×5",increased alanine aminotransferase (ALT) and aspartate aminotransferase (AST) levels and decreased alkaline phosphatase (ALKP) and albumin levels in serum
same,"blood chemistry, renal function (BUN, CREA)","[4]; 15 days p.i., 5 mg/kg ×5",increased blood urea nitrogen (BUN) and creatinine (CREA) levels in serum
same,body weight loss,[4]; [8],~10%
same,mortality,[4]; [8],25%
same,"maximal tolerance dose (MTD, in terms of DOX)",[5],10 mg/kg body weight
same,DOX distribution in the kidneys,[6]; 1 hr p.i.,11.4 % ID/g
same,DOX accumulation in the liver,[6]; 24 h p.i.,even lower accumulation in the liver
same,decrease of muscle DOX from 1 to 24 h,"[6]; mouse, in vivo",19.7%
same,DOX-based renal clearance (renally cleared DOX),[7],6.1±1.1 % ID
